In patent US9364002B2, “Plant volatiles” (Keygene N.V., priority 2007, dated 2016):

Assays:
B. tabaci [1] = assay: Free-choice bioassay: headspace or pure volatiles added to one of four cv Moneymaker tomato plants; assay type: in vivo, Bemisia tabaci (biotype Q, Almeria population); conditions: pure compound added to Moneymaker background
Method: A population of Bemisia tabaci was collected at a common greenhouse in Santa Maria del Aguila (Almeria, Spain) in October 2005. By PCR analyses this population was identified to belong to the Q-biotype. The population was reared in a climate chamber (Temperature 28° C., 16 h light) on a mixture of tomato and cucumber plants. Preference of the insects for particular plants (treated or untreated/control-treated) was tested in free choice bioassays.
Free choice experiments with B. tabaci were carried out in a greenhouse compartment (28° C., RH 65%). Light was supplied by high-pressure sodium lamps (Hortilex Schréder SON-T PIA GP 600 W) with a radiation of 250 W/m^2. The preference behaviour of B. tabaci biotype Q (Almeria population) and biotype B (labculture Netherlands) was compared in bioassays with different wild tomatoes (LA1777, LA2560, GI1560) and S. lycopersicum cv Moneymaker). Plants were placed inside a plastic covered wooden tray (170×100×20 cm) filled with soil, at equal distance from each other. Two hundred adult whiteflies were captured, placed at 4° C. for five minutes and then released in the middle of the setup. Ten and 20 minutes after release, the number of whiteflies on each plant was recorded. Since no differential behaviour between B. tabaci B and Q was found, all further bioassays were done with the Almeria (Q) population.
For bioassays with headspace (total headspace or single compounds) four potted tomato plants (S. esculentum cv Moneymaker) were placed in a square setup at a distance of 50 cm. One hundred and fifty adult whiteflies were released and recorded as described above. To test the effect of selected headspace components on repellence, synthetic standards (FLUKA) were applied to either 10 filter-papers discs (Whatman, 25 mm diameter) or 10 rubber septa (Sigma Aldrich, Z167258). Prior to loading, the septa were placed in CH2Cl2 for 24 h and air-dried for 3 days (Heath et al., 1986). The paper discs or septa containing volatiles were attached to one of the four plants with metal wire. The position of the treated tomato was randomised. Five minutes after placing the volatiles on the plant, whiteflies were released. For each component at least 8 replications were carried out. Treatments were administered in a setup in which compounds were always added to the same plant in comparison to 3 plants with empty carriers. Prior to each assay with volatiles, the experiment was done with the 4 plants in an untreated setup, in the same position to allow comparison in the same background.
Host preference with and without manipulated headspace by B. tabaci was explored in free choice assays. In each setup four cultivated tomatoes (cv. Moneymaker) were tested as described earlier. For the bioassays with volatiles rubber septa (Sigma Aldrich Z167258) were extracted with CH2Cl2 for 24 hours and dried to the air for 3 days. The desired blend of volatiles was added to the rubber septa in 100 μl hexane. Bioassays with pure components, or mixtures of pure components were carried out as described above.

B. tabaci [2] = assay: Statistical correlation (stepwise-linear regression, MANOVA) of headspace volatiles with whitefly repellence ranking; set-up: species or system Bemisia tabaci; conditions: for compounds responsible for repellency or attraction of whitefly: linked to S. pennelli, S. habrochaites or cultivated S. lycopersicum headspace; for Effect on insects: volatiles of tomato headspace correlated to whitefly repellency/attraction score by linear regression; for association: semiochemicals associated to B. tabaci repellence or attraction
Description: In a large experiment (see Example 2), the headspace of 16 wild tomato accessions and 5 cultivated tomato lines were sampled and analyzed (6 repeats). In total 51 compounds were identified to be present in the captured headspace. Furthermore, the level of repellency/attraction of each of the 21 tomato accessions was established in free choice bioassays with B. tabaci (biotype Q), using a ranking scale of 1-7 (1=highest repellency to 7=lowest repellency). Next, the identified volatile compounds were correlated to the repellency/attraction score of each tomato accession through a linear regression analysis.
The headspace of 16 wild tomatoes and 5 cultivated tomatoes (Table 4) was collected. Undisturbed 3-weeks old tomato plants were transferred to 40-L desiccators. The headspace was sampled during 24 h including a 16 h light period, by trapping of the volatile components as described above. […] Each accession was sampled 6 times.
In a statistical analysis the correlation between the identified components of the tomato headspace and the ranking of whitefly repellence measured in the bioassays was made. Using two approaches, a stepwise-linear regression analysis and a MANOVA, 8 volatiles were identified to be correlated to whitefly repellence, whereas 24 other volatile compounds were eliminated as non-relevant for repellency or attraction.

B. tabaci antennae = assay: Electroantennography (EAG); set-up: species or system Bemisia tabaci; conditions: 10^-3 dilution in paraffin oil; response to paraffin oil subtracted
Method: Electroantennography (EAG) was employed to confirm the responsiveness of the atennae to 10^−3 dilution in paraffin oil (Uvasol, Merck) of the chemicals described. Small pieces of filter paper (2 cm2; Schleicher & Schuell, Dassel, Germany) were soaked with 100 μl of the standard dilution or praffin oil only (control). The filter paper was inserted into a 10-ml glass syringe (Poulten & Graf GmbH, Wertheim, Germany). A reproducible stimulus was supplied by puffing 5 ml of air over the antenna (Schutz et al., 1999). The EAG response was recorded for each standard (10^−3) dilution. The response to paraffin oil was considered as a negative control and was subtracted from all the reported EAG measurements. The EAG response expressed as a potential difference across the electrodes (in mV) for the different pure chemicals is given in the right-hand column of Table 5.

[3] = system: fourth instar larvae of Colorado potato beetle; conditions: cited from earlier work
[4] = system: pests of cut flowers (e.g. B. tabaci); conditions: fumigants at 10-20 mg/l, after 2-4 hours of exposure; cited from earlier work
[5] = system: adult whiteflies B. tabaci; conditions: cited from earlier work

SMILES | effect on repellence/attractiveness of treated tomato plant (in words) (B. tabaci [1]) | compounds responsible for repellency or attraction of whitefly (B. tabaci [2]) | Effect on insects (B. tabaci [2]) | antennal response (EAG potential difference) (B. tabaci antennae) | association (B. tabaci [2]) | further results
CC1=CCC(C(C)C)=CC1 [gamma-terpinene] | no significant behavioural effect | repellent | Repellent |  |  | 
CC1=CCC(C(C)C)C=C1 (stereo not drawn) [Alpha-phellandrene] | decreased tomato attractiveness significantly | repellent | Repellent | 2.2 mV | repellence | 
C=C1C=CC(C(C)C)CC1 (stereo not drawn) [beta-phellandrene] |  | significantly correlated to the more attractive cultivated S. lycopersicum plants | Attractant |  |  | 
C=CC(=C)CCC=C(C)C [beta-myrcene] |  | repellent | Repellent |  |  | 
Cc1ccc(C(C)C)cc1 [para-cymene] |  | repellent | Repellent | 2.4 mV | repellence | 
CC(C)=CCC[C@@H](C)[C@@H]1C=CC(C)=CC1 [7-epi zingiberene] | clear repellent effect | more unattractive |  | 2.3 mV | repellence | 
CCCCCCCCCC(C)=O [2-undecanone] |  |  |  |  |  | toxic effect [3]: toxic effect
CC(C)=CCCC(C)[C@@H]1C=CC(C)=CC1 (stereo partly drawn) [zingiberene] |  |  | Repellent |  |  | 
CC12CCC(CC1)C(C)(C)O2 [Cineole] |  |  |  |  |  | mortality [4]: caused mortality
CCCCCCCCCCCC(C)=O [2-tridecanone] |  |  |  |  |  | toxic effect [5]: toxic effect
CC1=CC=C(C(C)C)CC1 [Alpha-terpinene] | decreased tomato attractiveness significantly | repellent | Repellent | 4.1 mV | repellence | 
C=CCc1ccc2c(c1)OCO2 [safrole] |  |  |  |  |  | mortality [4]: caused mortality
CC(C)=CCCC(C)c1ccc(C)cc1 (stereo not drawn) [alpha-curcumene] |  |  | Repellent |  |  | 
C=C(C)[C@H]1CC=C(C)CC1 [limonene] |  | significantly correlated to the more attractive cultivated S. lycopersicum plants | Attractant |  |  | 
CC(C)=CCC[C@H](C)c1ccc(C)cc1 [S-curcumene] | clear repellent effect | more unattractive |  | 5.0 mV | repellence | 
CC1=CC2C(CC1)C2(C)C (stereo not drawn) [2-carene] |  | significantly correlated to the more attractive cultivated S. lycopersicum plants | Attractant |  |  | 
